Tests used:
PTEN null line = assay: CellTiter-Glo combination assay with docetaxel (FIG. 19); format: cell-based
Excerpt: Viable cells are reflected in relative luminescence units (RLU).

[1] = tested on: LuCap35V primary human prostate tumor model; assay: In vivo tumor xenograft efficacy, LuCap35V (FIG. 1); parameters: species or system mice
Excerpt: FIG. 1 illustrates results for the compound of Example 2 and docetaxel in LuCap35V primary prostate tumors. FIG. 2 illustrates results for the compound of Example 2 dosed intermittently either PO or IP and docetaxel in PC3-NCI prostate tumors. FIG. 3 illustrates results for the compound of Example 2 dosed PO and docetaxel in PC3-NCI prostate tumors. FIG. 4 illustrates results for the compound of Example 2 dosed IP intermittently and docetaxel in MCF7-neo/HER2 tumors. FIG. 5 illustrates results for the compound of Example 2 dosed PO and docetaxel in MCF7-neo/HER2 breast tumors. FIG. 6 illustrates results for the compound of Example 2 and docetaxel in MAXF401 mammary tumors. FIG. 7 illustrates results for the compound of Example 2 and docetaxel in SKOV3 ovarian tumors. FIG. 8 illustrates results for the compound of Example 2 and cisplatnin in SKOV3 ovarian tumors. FIG. 9 illustrates results for the compound of Example 2 dosed PO and carboplatin in IGROV-1 ovarian tumors. FIG. 10 illustrates results for the compound of Example 2 and GDC-0973 at 2.5 mg/kg in H2122 NCI-NSCL tumors. FIG. 11 illustrates results for the compound of Example 2 and GDC-0973 at 5.0 mg/kg in NCI-H2122 NSCLC tumors. FIG. 12 illustrates results for the compound of Example 2 and GDC-0973 at 7.5 mg/kg in NCI-H2122 NSCLC tumors. FIG. 13 illustrates results for the compound of Example 2 and MDV3100 in LuCap35V tumors.

[2] = tested on: prostate specific antigen serum levels; details: after a month of taking the medicine; cited from earlier work
[3] = active metabolite vs irinotecan itself; cited from earlier work

CC(C)NC[C@@H](C(=O)N1CCN(c2ncnc3c2[C@H](C)C[C@H]3O)CC1)c1ccc(Cl)cc1 [Example 2, (S)-2-(4-chlorophenyl)-1-(4-((5R,7R)-7-hydroxy-5-methyl-6,7-dihydro-5H-cyclopenta[d]pyrimidin-4-yl)piperazin-1-yl)-3-(isopropylamino)propan-1-one]
single agent response (PTEN null line): minimal single agent response
tumor response (FIG. 1) [1]: tumor stasis

CNC(=O)c1ccc(N2C(=S)N(c3ccc(C#N)c(C(F)(F)F)c3)C(=O)C2(C)C)cc1F [MDV3100, 4-(3-(4-cyano-3-(trifluoromethyl)phenyl)-5,5-dimethyl-4-oxo-2-thioxoimidazolidin-1-yl)-2-fluoro-N-methylbenzamide]
decrease in prostate specific antigen serum levels [2]: ≤ 89%

CCc1c2c(nc3ccc(O)cc13)-c1cc3c(c(=O)n1C2)COC(=O)[C@]3(O)CC [SN-38, 7-ethyl-10-hydroxy-camptothecin]
activity relative to irinotecan [3]: 200 times

CC(=O)O[C@@]12CO[C@@H]1C[C@H](O)[C@@]1(C)C(=O)[C@H](O)C3=C(C)[C@@H](OC(=O)[C@H](O)[C@@H](NC(=O)OC(C)(C)C)c4ccccc4)C[C@@](O)([C@@H](OC(=O)c4ccccc4)[C@H]21)C3(C)C [docetaxel, (2R,3S)—N-carboxy-3-phenylisoserine, N-tert-butyl ester, 13-ester with 5, 20-epoxy-1,2,4,7,10,13-hexahydroxytax-11-en-9-one 4-acetate 2-benzoate, trihydrate]
tumor response (FIG. 1) [1]: tumor stasis

— US9150548B2, “Combinations of AKT inhibitor compounds and vemurafenib, and methods of use” (Genentech, Inc., priority 2011, dated 2015)
